Where two headings read alike, the source gives them in different places.
Assays:
[1] = tested on: U-2OS cells; conditions: series of concentration jumps
Source text: FIG. 12A illustrates averaged background-subtracted temporal dose-response curves for U-2OS cells treated with FCCP. FIG. 12B illustrates averaged background-subtracted temporal dose-response curves for U-2OS cells pretreated with a nutrient solution containing oligomycin before being treated with FCCP.
Both Chip 1 and Chip 2 devices were ISFET devices selective for sensing hydrogen ion, and included a microwell array. […] The U-2OS cells were resuspended at 1×10^6 cells per mL and plated onto chips for overnight incubation in a cell culture incubator to allow the cells to adhere to the prepared surface of the chip. To test for dose-dependence of the FCCP treatment, cells were exposed to a series of concentration jumps during the experiment as indicated in FIGS. 12A and FIG. 12B. In FIG. 12A, experiments were carried out in the absence of oligomycin, and in 12B, the FCCP dose-response curve was generated in the presence of oligomycin.
The data in FIG. 12A and FIG. 12B are composed of averaged cellular responses from samples tested with FCCP.

[2] = tested on: HEPG2 cells; conditions: 100 μM; seen for some cells (CHEPG1, CHEPG2), not all (CHEPG3)
Experimental: The HEPG2 cells were resuspended at 1×10^6 cells per mL and plated onto chips for overnight incubation in a cell culture incubator to allow the cells to adhere to the prepared surface of the chip.

[3] = tested on: MMM cells; conditions: MMM cells tested individually on separate device
Source text: (§1) For the experiments for which data is presented in FIG. 13A through FIG. 13C, three distinct cell types were chosen to test for the ability of the instrument to discriminate cell type based on response to FCCP. To generate the data set comparing widely varying cell types, donor-derived primary human aortic smooth muscle (HASM) cells (HASMC; Gibco cat# C0075C), human cervical cancer cells (HeLa cells; ATCC catalogue number CRM CCL 2) and a mouse-derived […] cell line (MMM cells; ATCC catalogue number J774A.1) were selected for the study.
(§2) FIG. 13A through FIG. 13C are average background-subtracted temporal dose-responses curves for each type of cell line tested individually on separate devices. FIG. 13A is set of dose-response curves for HASM cells, FIG. 13B is a set of dose-response curves for HeLa cells, and FIG. 13C is a set of dose-response curves for MMM cells. For the data shown in FIG. 14A through FIG. 14C, a mixture of the cells were exposed to 100 μM FCCP and their responses recorded in order to understand whether or not the different cell types could be identified by their response to FCCP. FIG. 14A illustrates composite temporal dose-response curves for selected cells in a mixture of different cell types in which the cells were subjected to FCCP. FIG. 14B is an electroscopic image of the experiment of FIG. 14A taken at a time corresponding to frame 40 (2.7 seconds), in which squares within the cells indicate the pixels that were sampled for the data of FIG. 14A. FIG. 14C is the electroscopic image of FIG. 14B for which the squares within the cells in […] have removed to provide a clear image of the cells.
(§3) The sensor array devices used in experiments from which data for FIG. 13A though FIG. 14C was generated was a Chip 2 device of FIG. 3, selective for sensing hydrogen ion, and included a microwell array.

[4] = tested on: HeLa cells; conditions: HeLa cells tested individually on separate device
Source text: as §1, §2, §3

[5] = tested on: HASM cells; conditions: HASM cells tested individually on separate device
Source text: as §1, §2, §3

[6] = tested on: voltage-gated calcium ion channels; assay: ChemFET sensor array: 30 mM KCl depolarizing stimulus in presence of calcium channel blocker, control vs transfected U-2OS cells; type: cell-based; conditions: 10 μM, U-2OS control cells vs U-2OS transfected with voltage-gated calcium channel alpha, beta and alpha-2-delta subunits
Source text: FIG. 9A illustrates temporal response curves for U-2OS cells (C1 and C2) and U-2OS cells transfected with voltage-gated calcium channel alpha, beta and alpha-2-delta subunits (C3 and C4). The temporal response curves presented in FIG. 9A represent data collected over an area of interest for the U-2OS cells in comparison to transfected U-2OS cells, in which the impact of cell response for each type of cell treated with the calcium ion channel blocker verapamil was monitored through a cycle of an initial state of resting potential, followed by conditions for depolarization of membrane potential, and return to resting potential.
Briefly, the sensor array device surface was soaked for 30 minutes with 70% ethanol in water, then rinsed with PBS before adding a solution of 0.1% poly-D-lysine, which was allowed to sit for two hours. The device was then rinsed twice with 200 μL of a cell culture medium, for example, McCoy's 5A modified medium with 10% fetal calf serum. After rinsing with the cell culture medium, the devices were ready for plating with a cell suspension.
Preparation of transfected cells was done using a cell suspension of 1×10^6 cells per mL. Mammalianized BacMam gene delivery particles encoding a mixture of voltage-gated calcium ion channel alpha, beta and alpha-2-delta subunits was added to the cell suspension to reconstitute functional channels. […]

| Structure (SMILES) | averaged cellular temporal response ([1]; absence of oligomycin) | averaged cellular temporal response ([1]; presence of oligomycin (pretreatment)) | cellular response observed during application (electroscopic image) [2] | temporal response to FCCP [3] | temporal response to FCCP [4] | temporal response to FCCP [5] | activity of blocker on temporal response to depolarizing stimulus [6] |
| --- | --- | --- | --- | --- | --- | --- | --- |
| N#CC(C#N)=NNc1ccc(OC(F)(F)F)cc1 [FCCP, carbonyl cyanide-4-(trifluoromethoxy)phenylhydrazone] | dose-dependent FCCP responses | dose-dependent FCCP responses | efflux of cellular contents | distinct kinetic and amplitude response | distinct kinetic and amplitude response | distinct kinetic and amplitude response | – |
| COc1ccc(CCN(C)CCCC(C#N)(c2ccc(OC)c(OC)c2)C(C)C)cc1OC (stereo not shown) [verapamil] | – | – | – | – | – | – | selective activity of a blocker on cultures that express the target protein |

Reference: patent publication US12140559B2, “Cell analysis using ChemFET sensor array-based systems” (LIFE TECHNOLOGIES CORPORATION, priority 2018, dated 2024)
